One experiment addresses T1, Syk (Homo sapiens, UniProt P43405).
T1 construct: purchased Cama Biosciences (so in the source)
As to the kind of experiment: Syk HTRF Assay. It counts as biochemical. How it is done:
5 μl/well DMSO is added to Column 2 Wells A-0 and 29.5 μl to well P2 of Greiner 384-well polypropylene plate. 20 μl/well DMSO is added to Columns 1 and 3-12.
25 mM compound solutions are prepared by the addition of 25 μl of 30 mM compound to Column 2 and 0.5 μl 30 mM reference control to well P2.
Serial dilution is then performed by the following steps: (i) compounds in Column 2 are mixed by pipetting 20 μl up and down 6×; (ii) 10 μl/well compounds in DMSO are transferred from one column to the next column for Columns 2-11; (iii) wells are mixed by pipetting 20 μl up and down 6×; (iv) tips washed 3×25 μl DMSO, 2×25 μl next DMSO.
(§1) The following buffers are prepared:
Dilution Buffer: 50 mM HEPES pH 7.6; 1 mM DTT; 10 mM MgCl2; 0.01% Triton X100; 0.01% BSA; 0.1 mM EDTA.
Enzyme Mix in Dilution Buffer: 8.621 ng/ml Syk (Cama Biosciences 08-176).
Start Mix in Dilution Buffer: 87.5 μM ATP; 80 nM Substrate Peptide (American Peptide Company 332722).
14.5 μl/well Enzyme Mix or Dilution Buffer (Background Controls) is added to Costar 384-well black plates.
Compound addition and mixture is performed by the following steps: (i) 0.5 μl/well DMSO/compounds in DMSO transferred from Greiner 384-well polypropylene plate to left half of assay plate containing 14.5 μl/well Enzyme Mix and Dilution Buffer; (ii) Mix by pipetting 10 μl up and down 4×; (iii) tips are washed 4×10 μl in DMSO, 2×20 μl in other DMSO; (iv) steps i-iii are repeated with transfer to right half of assay plate; (v) steps i-iv are repeated with each compound/assay plate until all plates are completed.
10 μl/well Start Mix is added and incubated at room temperature on shaker for 2 minutes (1 hour total reaction time).
Stop Solution in Dilution Buffer: 120 mM EDTA
Antibody Mix in Dilution Buffer: 4.86 μg/ml DyLight 647 Streptavidin (Pierce 21824); 1 μg/ml Lance Eu-Anti-Phosphotyrosine (PerkinElmer AD0069).
5 μl/well[…] is added and incubated at room temperature on shaker for 2 minutes.
[…] Antibody Mix is added and Incubated at room temperature on shaker for 2 minutes (4 hours to overnight total time).
Plates are read at 665 nm and 620 nm emission on Analyst GT protocol HTRF_SP_A or EnVision protocol Steve's TR-FRET.

The target in the next experiment is T2, Tyk2 (Homo sapiens, UniProt P29597).
T2 construct: 450 ng/ml TYK2 KD (Cama Biosciences 08-147 Lot 06CBS-3022D); purchased Cama Biosciences (so in the source)
T2 sequence (P29597 897-1176 limits assumed): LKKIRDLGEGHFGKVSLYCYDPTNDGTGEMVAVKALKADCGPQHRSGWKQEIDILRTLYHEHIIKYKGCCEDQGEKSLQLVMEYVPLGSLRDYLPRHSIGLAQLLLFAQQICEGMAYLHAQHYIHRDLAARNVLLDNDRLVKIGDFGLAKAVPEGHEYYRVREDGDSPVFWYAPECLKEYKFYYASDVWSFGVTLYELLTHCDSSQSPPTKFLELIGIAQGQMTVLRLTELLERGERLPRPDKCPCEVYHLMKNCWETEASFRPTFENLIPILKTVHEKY
Nature of the experiment: Tyk2 HTRF Assay. In kind it is biochemical. The method, then:
The following is an example of an assay that can be used to determine the Tyk2 inhibitory activity of a test compound.
25 μl/well DMSO is added to Columns 2 and 14 (except 28.5 μl is added to well P14 of Greiner 384-well polypropylene plate). 20 μl/well DMSO is added to all remaining wells.
5 mM compound solutions are added by addition of 5 μl of 30 mM compound to 25 μl DMSO in Columns 2 and 14 of plate. 1.5 mM reference control is prepared by addition of 1.5 μl of 30 mM JAK3 Inhibitor VI to 28.5 μl DMSO in Well P14.
Serial dilution is then performed by the following steps: (i) Compounds in Column 2 are mixed by pipetting 20 μl up and down 6X; (ii) 10 μl/well compounds in DMSO are transferred from one column to the next column for Columns 2-11; (iii) wells are mixed by pipetting 20 μl up and down 6×; (iv) tips are washed 3×25 μl DMSO, 2×25 μl next DMSO; (v) steps i-iv repeated for Columns 14-23.
as §1
Assay Buffer: 50 mM HEPES pH 7.6; 1 mM DTT; 10 mM MgCl2; 0.01% Triton X100; 0.01% BSA; and 0.1 mM EDTA.
Kinase in Assay Buffer: 450 ng/ml TYK2 KD (Cama Biosciences 08-147 Lot 06CBS-3022D).
Substrate/Detection Mixture (1×ATP) in Assay Buffer: 188 nM DyLight 647-Streptavidin (Pierce 21824); 5 μM Biotin-EQEDEPEGDYFEWLE (Lyn Substrate Peptide); 750 ng/ml Eu-anti-phospho-Tyrosine (PerkinElmer AD0069); 62.5 μM ATP; 80 nM Substrate Peptide (American Peptide Company 332722).
Substrate/Detection Mixture (20×ATP) in Assay Buffer: 188 nM DyLight 647-Streptavidin; 5 μM Biotin-EQEDEPEGDYFEWLE; 750 ng/ml Eu-anti-phospho-Tyrosine; 1250 μM ATP; 80 nM Substrate Peptide.
14.5 μl/well Enzyme Mix or Dilution Buffer (Background Controls) is added to Costar 384 well black plates.
Compound addition and mixture is performed by the following steps: (i) 0.5 μl/well DMSO/compounds in DMSO is transferred from Greiner 384-well polypropylene plate to a plate containing 14.5 μl/well Enzyme Mix and Dilution Buffer; (ii) mixed by pipetting 10 μl up and down 4×; (iii) tips are washed 4×10 μl in DMSO, 2×20 μl in other DMSO; (iv) steps i-iii are repeated until all plates are completed.
10 μl/well Substrate/Detection Mixtures is added and incubated at room temperature 2 hours (on shaker for first 2+ minutes).
10 μl/well 50 mM EDTA/0.01% Triton X100 is added and incubated >15 minutes at room temperature (on shaker for first 2+ minutes).
Plates are read at 665 nm and 620 nm emission on Analyst GT protocol HTRF_SP_A (Counts= 665/620×10000).

The structures appear in SMILES notation.

The results in this text go back to patent US7968556B2, “Heteroaryl compounds, compositions thereof, and methods of treatment therewith” (Signal Pharmaceuticals, LLC, priority 2006, dated 2011).

For the molecule `COc1ccccc1-n1c(=O)[nH]c2c(C(N)=O)nc(-c3ccc(O)cc3)nc21` [Compound 8, 2-(4-hydroxyphenyl)-9-(2-methoxyphenyl)-8-oxo-8,9-dihydro-7H-purine-6-carboxamide], the IC50 at Syk is above 30 µM.
Take `COc1ccccc1-n1c(=O)[nH]c2c(C(N)=O)nc(-c3ccnc(O)c3)nc21` [Compound 13, 2-(2-hydroxypyridin-4-yl)-9-(2-methoxyphenyl)-8-oxo-8,9-dihydro-7H-purine-6-carboxamide]: the half-inhibitory concentration (IC50) against Syk was above 30 µM.
In the case of `NC(=O)c1nc(-c2cccnc2)nc2c1[nH]c(=O)n2[C@H]1CC[C@H](O)CC1` [Compound 50, 9-(trans-4-Hydroxycyclohexyl)-8-oxo-2-(pyridin-3-yl)-8,9-dihydro-7H-purine-6-carboxamide], the half-inhibitory concentration (IC50) on Tyk2 lay within 20.1 to 30 µM.
